Laboratory results from publication PMC3543149 (Diabetologia, 2012).

Molecular target: T1, PKC-ι (Homo sapiens, UniProt P41743)
T1 sequence (P41743 2-596): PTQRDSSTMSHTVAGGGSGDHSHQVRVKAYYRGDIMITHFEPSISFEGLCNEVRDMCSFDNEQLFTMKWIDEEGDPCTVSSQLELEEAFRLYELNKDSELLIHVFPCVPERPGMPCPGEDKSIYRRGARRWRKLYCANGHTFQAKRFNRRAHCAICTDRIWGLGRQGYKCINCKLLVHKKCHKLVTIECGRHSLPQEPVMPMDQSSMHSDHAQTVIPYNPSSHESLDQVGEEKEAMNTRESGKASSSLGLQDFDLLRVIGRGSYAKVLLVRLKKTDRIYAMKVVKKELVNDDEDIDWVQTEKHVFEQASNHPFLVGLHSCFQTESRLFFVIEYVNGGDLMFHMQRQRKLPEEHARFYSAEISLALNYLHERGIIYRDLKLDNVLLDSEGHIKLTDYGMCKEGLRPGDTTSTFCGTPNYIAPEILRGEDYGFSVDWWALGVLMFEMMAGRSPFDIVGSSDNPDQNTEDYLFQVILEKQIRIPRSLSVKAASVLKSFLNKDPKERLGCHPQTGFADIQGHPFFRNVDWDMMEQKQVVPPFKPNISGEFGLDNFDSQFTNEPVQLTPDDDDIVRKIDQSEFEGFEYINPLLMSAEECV
Experiment: […]-ATP kinase assay of recombinant PKC-ι activated by PIP3, dose response
Format: biochemical

SMILES: NC(=O)c1ncn([C@@H]2C[C@H](COP(=O)(O)O)[C@@H](O)[C@H]2O)c1N [ICAPP]
- IC50: 10 to 100 nM
